From PubChem BioAssay AID743300 (The Scripps Research Institute Molecular Screening Center, 2014)

Target: methionyl-tRNA synthetase (Trypanosoma brucei brucei)
Assay: T. brucei MetRS inhibitors, late-stage follow-up, biochemical, luminescence, dose response, round 2 (AID 743300)
Details: T. brucei MetRS enzyme, luminescence read-out

IC50: 99.5 nM
Compound: CCN(CC)C(=O)C(=O)c1cn(CC(=O)Nc2cccc(C(F)(F)F)c2)c2ccccc12
